Results as given in patent publication US5866570A, “Treatment of vascular leakage and related syndrome such as septic shock by administration of metalloproteinase inhibitors” (Wisconsin Alumni Research Foundation, priority 1994, dated 1999).

How the values were obtained:
[1] = molecular target: T1, E. coli recombinant human 72 kD collagenase type IV (MMP-2), pAPMA activated (Homo sapiens, UniProt P08253); test: gelatinase assay (3H-gelatin degradation), Example 9; type: biochemical; conditions: 100 ng activated enzyme, 4 hrs preincubation with inhibitor at 37° C., 3H-gelatin substrate; read-out: IC50, inhibition of collagenase type IV gelatinase activity
T1 construct: made in house; host or cells: E. coli
T1 sequence (P08253 110-660): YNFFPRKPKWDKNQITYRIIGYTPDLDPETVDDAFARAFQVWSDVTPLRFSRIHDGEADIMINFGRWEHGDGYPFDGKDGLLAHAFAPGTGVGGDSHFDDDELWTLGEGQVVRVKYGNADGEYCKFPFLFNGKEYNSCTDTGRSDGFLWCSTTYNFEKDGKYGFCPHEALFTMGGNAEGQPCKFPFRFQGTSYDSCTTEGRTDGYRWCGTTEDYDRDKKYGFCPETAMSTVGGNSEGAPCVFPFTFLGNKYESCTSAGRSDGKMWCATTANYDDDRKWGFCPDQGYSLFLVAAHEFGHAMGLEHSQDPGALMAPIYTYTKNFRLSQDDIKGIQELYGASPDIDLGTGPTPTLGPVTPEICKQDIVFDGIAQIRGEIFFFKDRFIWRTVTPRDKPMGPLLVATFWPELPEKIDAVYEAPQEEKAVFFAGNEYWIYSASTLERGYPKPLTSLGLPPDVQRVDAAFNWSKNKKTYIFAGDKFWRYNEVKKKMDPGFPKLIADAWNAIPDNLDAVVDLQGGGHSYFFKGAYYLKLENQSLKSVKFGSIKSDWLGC
From the text: Type IV collagenases are highly efficient in digesting gelatin. Inhibition of the gelatinase activity of human recombinant collagenase type IV was used as an initial assay for testing the bis(dioxopiperazine)s. The recombinant 72 kD collagenase IV used in the gelatinase assays was made in E. coli from a cDNA insert obtained from Dr. William Stetler-Stevenson (NCI). The protein runs at 72 kD on SDS-PAGE, has gelatinolytic activity in zymogram, is activated by pAPMA, is precipitated by a monoclonal anti-peptide antibody to the pro-region of the 72 kD enzyme, and is inhibited by TIMP-2. Rat tail ^3 H-collagen I (Dupont-NEN) is denatured to become gelatin by heating at 60° C. for 20 min. E. coli recombinant human 72 kD collagenase type IV is activated by incubation with 1 mM pAPMA for 1 hr. at 37° C. 100 ng of activated enzyme is added to each tube containing 50 mM Tris-HCl pH 7.5, 5 mM CaCl2 and 0.005% Brij-35 and pre-incubated with inhibitor or solvent control for 4 hrs. at 37° C. in a total of 25 μl. 10,000 cpm of ^3 H-gelatin substrate in 30 μl is added (final volume of 55 μl per sample) and the reaction mixture is incubated at 37° C. for 2 to 16 hrs. […] Enzyme activity is calculated from the radioactivity in the supernatant and activity of the compounds expressed as percent solvent control.

L1210 leukemia = conditions: 13 doses at 30 mg/kg; cited from earlier work
mouse L cell = conditions: l cells; read-out: ID50 inhibition of colony formation; cited from earlier work
mouse-embryo fibroblasts = conditions: cited from earlier work

SMILES | IC50 [1] [µM] | increase in survival time (L1210 leukemia) [%] | IC50 (mouse L cell) [nM] | IC50, inhibition of [3H]thymidine incorporation (mouse-embryo fibroblasts) [µg/mL]
CC1(C)O[C@H]2C[C@H](N3CC(=O)NC(=O)C3)[C@@H](N3CC(=O)NC(=O)C3)C[C@@H]2O1 (relative stereo) [Compound 80, (3aα, 5β, 6α, 7aβ)-4,4'-(hexahydro-2,2-dimethyl-1,3-benzodioxole-5,6-diyl)bis(2,6-piperazinedione)] | 8 |  |  | 
CC(CN1CC(=O)NC(=O)C1)N1CC(=O)NC(=O)C1 (stereo not shown) [razoxane] |  | 137 | 3000 | 0.5
